According to patent publication US4562006A, “Cycloheptadiene derivatives” (Warner-Lambert Company, priority 1984, dated 1985):

Each compound was assayed against human leukocyte lipoxygenase (assay: human leukocyte lipoxygenase assay (LDA)). Conditions: LDA column.
Type: biochemical
Protocol: An acetone-pentane powder of leukocyte and platelets was prepared from buffy coat obtained from the Michigan Red Cross and Michigan Department of Health in Lansing, Michigan, and was suspended in 5-7 volumes of cold 0.1M tris buffer, pH 7.4 containing 0.154 M NaCl. The suspension was centrifuged at 13,300 g for ten minutes at 4° C. The resultant pellet was retained, resuspended in five volumes of cold acetone, recentrifuged at 13,300 g and resuspended in five volumes of cold pentane. The pentane suspension was centrifuged for ten minutes at 13,300 g to give a pellet which was dried in the cold under vacuum with periodic pulverization. The dry powder is stable for several weeks when stored at -80° C.
This was prepared in the following manner. About 15 mg of the acetone-pentane powder is suspended in 4 ml of cold tris buffer (0.1M, pH 7.4), allowed to stand for five minutes and homogenized thoroughly. The homogenate is sonicated three times for 15 seconds each time, diluted to 7 ml with cold tris buffer (0.1M, pH 7.4) and centrifuged at 4° for 60 minutes at 13,300 g. The supernatant is retained and diluted to a total of 10 ml with cold tris buffer (0.1M, pH 7.4) to give the stock enzyme solution. […]
The enzyme reaction is followed spectrophotometrically by the appearance of a conjugated diene product at 234 nm. The reaction is monitored at 24° using a Gilford Model 2500 spectrophotometer. […]

Row | IC50 | SMILES
1 | 0.74 µM | CCCCC/C=C\C1C=CCC=CC1CCCCCC(=O)O (stereo not shown) [Example 12, 2,5-Cycloheptadiene-1-hexanoic acid, 7-(1-heptenyl)-(Z)-]

These compounds were tested against leukotriene receptor (assay: leukotriene receptor binding assay (RBL-1)). Conditions: not given.
Text: The details of the human leukocyte lipoxygenase assay are described below. The soybean lipoxygenase radiochemical is described in Prostaglandins, Leukotrienes, and Medicine, 11, 373-80 (1983). The leukotriene receptor binding assay is described by R. F. Bruns, W. J. Thomsen, and T. A. Pugsley in Life Sciences, 33, 645 (1983).
The following tables illustrate the activity of certain representative compounds of the present invention. The RBL-1 column represent data from the leukotriene receptor binding assay and the LDA(U) column reports on the human leukoxyte lipoxygenase assay.

Row | SMILES | IC50
2 | CCCCC/C=C\C1C=CCC=CC1CCCC(=O)O (stereo not shown) [Example 14, 2,5-cycloheptadiene-1-butanoic acid, 7-(1-heptenyl)-, (Z)-] | 53.4 µM
3 | CCCCC/C=C\C=C\C1CC1/C=C\CCCC(=O)O (stereo not shown) [Example 13, 6-[2-(1,3-nonadienyl)cyclopropyl]-5-hexenoic acid (Z,E,Z)] | 26.4 µM
4 | CCCCC/C=C\C1C=CCC=CC1CCCCCC(=O)O (stereo not shown) [Example 12, 2,5-Cycloheptadiene-1-hexanoic acid, 7-(1-heptenyl)-(Z)-] | 26.4 µM

Stronger by IC50, values ahead:

Row | IC50 | SMILES
5 | 23.9 µM | CCCCCCCC1C=CCC=CC1/C=C\CCCC(=O)O (stereo not shown) [Example 6, 5-Hexenoic acid, 6-(7-heptyl-2,5-cycloheptadien-1-yl)-]
6 | 10.3 µM | CCCCC/C=C\C=C\C1CC1/C=C\CCCCCC(=O)O (stereo not shown) [Example 11, 7-Octenoic acid, 8-[2-(1,3-nonadienyl)cyclopropyl]-, (Z,E,Z)]
7 | 17.1 µM | CCCCC/C=C\C1C=CCCC=C1/C=C\CCCC(=O)O (stereo not shown) [Example 18, 5-Hexenoic acid, 6-[7-(1-heptenyl)-1,5-cycloheptadien-1-yl]-]
